# Assay results as given in publication PMC2810227, “3-O-Methylfunicone, a Selective Inhibitor of Mammalian Y-Family DNA Polymerases from an Australian Sea Salt Fungal Strain” (Marine Drugs, 2009).
# Experiments:
# calf primase of pol α = test: Primase assay; assay type: biochemical; details: 100 μM
# Description: (§1) The activities of calf primase of pol α, human telomerase, T7 RNA polymerase, mouse IMP dehydrogenase, human DNA topoisomerases I and II, T4 polynucleotide kinase and bovine DNase I were measured in standard assays according to the manufacturer’s specifications, as described by Tamiya-Koizumi et al., Oda et al., Nakayama et al., Mizushina et al., Ishimaru et al., Soltis et al. and Lu et al., respectively.
# [1] = test system: HCT116 (colon carcinoma cells); test: Cancer cell growth, MTT assay, HCT116; assay type: cell-based, human
# Description: Figure 5. (A) Human cancer cell growth inhibition dose-response curves of 3-O-methyl-funicone (1). Various concentrations (0 to 150 μM) of compound 1 were incubated with human colon carcinoma (HCT116) cells (circle) and human cervix carcinoma (HeLa) cells (square) for 24 h. Rate of cell growth was determined by MTT assay as described in the Experimental section. Data are shown as the means ± SEM of five independent experiments. (B) Clonogenic survival of UV-treated HeLa cells by compound 1. Various concentrations (0 to 100 μM) of compound 1 were incubated with 10 J/m^2 UV-treated (closed circle) or untreated (open circle) HeLa cells. After 7 days, the number of colonies in each treatment group was counted. Values are the means ± SEM of two independent experiments.
# Human colon carcinoma cell line, HCT116, was a kind gift from Dr. Bert Vogelstein (Johns Hopkins University, Baltimore, […], USA). Human cervix carcinoma cell line, HeLa, was obtained from Health Science Research Resources Bank (Osaka, Japan). The cells were maintained in McCoy’s 5A medium supplemented with 10% FBS, sodium bicarbonate (2 g/L) and streptomycin (100 μg/mL). The cells were cultured at 37 °C in standard medium in a humidified atmosphere of 5% CO2-95% air. […] After incubation for 24 h, the survival rate was determined by MTT (3-(4,5-dimethylthiazol-2-yl)-2,5-diphenyl tetrazolium bromide) assay.
# [2] = test system: HDF (human dermal fibroblast); test: Proliferation and growth of normal cells, HDF; assay type: cell-based; details: data not shown
# human telomerase = human telomerase (Homo sapiens, UniProt O14746); test: Telomerase assay; assay type: biochemical; details: 100 μM
# Description: as §1
# Sequence of human telomerase (O14746 whole entry): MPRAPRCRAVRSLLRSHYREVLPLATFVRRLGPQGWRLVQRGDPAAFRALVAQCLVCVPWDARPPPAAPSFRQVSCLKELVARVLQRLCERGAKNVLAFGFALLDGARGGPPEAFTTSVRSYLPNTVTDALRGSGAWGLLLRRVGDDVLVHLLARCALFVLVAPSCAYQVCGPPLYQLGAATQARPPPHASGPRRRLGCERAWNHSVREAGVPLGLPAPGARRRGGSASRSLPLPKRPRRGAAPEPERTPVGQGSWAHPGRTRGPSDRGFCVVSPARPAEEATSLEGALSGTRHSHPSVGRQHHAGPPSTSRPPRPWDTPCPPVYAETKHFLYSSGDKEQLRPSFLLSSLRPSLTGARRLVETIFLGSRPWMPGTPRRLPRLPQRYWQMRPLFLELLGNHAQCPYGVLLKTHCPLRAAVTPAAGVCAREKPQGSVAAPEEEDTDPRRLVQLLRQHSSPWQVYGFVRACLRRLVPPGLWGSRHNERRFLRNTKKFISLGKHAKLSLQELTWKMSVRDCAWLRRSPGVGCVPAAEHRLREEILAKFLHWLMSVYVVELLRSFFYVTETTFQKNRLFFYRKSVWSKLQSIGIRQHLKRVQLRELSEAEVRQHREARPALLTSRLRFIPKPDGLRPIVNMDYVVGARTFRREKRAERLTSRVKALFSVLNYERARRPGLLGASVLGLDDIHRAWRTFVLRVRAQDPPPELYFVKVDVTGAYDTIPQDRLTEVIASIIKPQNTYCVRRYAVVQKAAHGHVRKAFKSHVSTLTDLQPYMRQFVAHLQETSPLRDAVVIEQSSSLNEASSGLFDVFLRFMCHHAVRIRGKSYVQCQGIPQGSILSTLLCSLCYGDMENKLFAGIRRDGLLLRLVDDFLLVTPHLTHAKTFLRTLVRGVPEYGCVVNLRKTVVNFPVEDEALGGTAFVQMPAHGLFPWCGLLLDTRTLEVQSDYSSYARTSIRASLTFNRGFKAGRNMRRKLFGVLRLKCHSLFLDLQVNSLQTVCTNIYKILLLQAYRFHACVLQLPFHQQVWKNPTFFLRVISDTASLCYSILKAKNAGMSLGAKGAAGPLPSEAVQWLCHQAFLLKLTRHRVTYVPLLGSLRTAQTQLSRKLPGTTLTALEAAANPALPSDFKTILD
compound,measurement,setting,value
"C/C=C/c1occ(C(=O)c2c(OC)cc(OC)cc2C(=O)OC)c(=O)c1OC [compound 1, 3-O-methylfunicone]",effect on calf primase of pol α activity,calf primase of pol α,did not influence
same,"LD50, cell growth","[1]; HCT116, 24 h, MTT assay",63.8 µM
same,cell growth inhibition dose relative to the enzyme inhibitory concentration,[1]; LD50 (HCT116 and HeLa) versus IC50 for Y-family pols,1.3 to 5.1 fold
same,effect on cell proliferation and growth,[2],did not influence
same,effect on human telomerase activity,human telomerase,did not influence
